Measured values taken from patent publication US12649751B2 (Arcus Biosciences, Inc., priority 2022, dated 2026).
Read-outs that look alike come from different tables or passages of the source.

Target: HPK1 (Homo sapiens, UniProt Q92918)
Test: HPK1 Biochemical Assay (ADP-Glo luminescence; low ATP 10 μM or high ATP 200 μM)
Experimental: Dose-response assays were performed in Corning® Low Volume 384-well assay plates containing 100 nL of 22 serial 2-fold compound dilutions. Wells containing DMSO alone were used as negative control. A kinase mixture (5 μL) containing 2 nM HPK1 (or 5 nM for high ATP assay) in assay buffer (50 mM Hepes pH 7.4, 10 mM MgCl2, 0.01% Brij-15, 0.01% bovine serum albumin, and 1 mM dithiothreitol) was added to the assay plates and incubated at 25° C. for 1 hour. Wells without HPK1 were used as positive control. A […] of 10 μM ATP (or 200 μM for high ATP) and 0.2 μg/μL […] was then added to the wells, resulting in a 10 μL total reaction volume. Following incubation of the assay plates at 25° C. for 1 hour, 10 μL of ADP-Glo reagent was added to the wells and the plates were incubated at 25° C. for a further 40 minutes (or 1 hour for high ATP assay). Finally, 20 μL of Kinase Detection Reagent was added, and the plates were incubated for another 30 minutes at 25° C. An Envision plate reader was then used to detect the luminescence signals. IC50 values were determined by fitting the data to a standard 4-parameter logistic equation. The results are summarized in the Biochemical Potency columns of Tables 4 and 5 below (Biochemical Potency (high ATP); Biochemical Potency (low ATP)).

[1] = 2 nM HPK1, 10 μM ATP, read-out: Biochemical Potency (low ATP)
[2] = HPK1 ADP-Glo assay, low ATP (10 μM ATP, 2 nM HPK1), read-out: Biochemical Potency (low ATP)

Chain of HPK1 (Q92918 whole entry, species assumed): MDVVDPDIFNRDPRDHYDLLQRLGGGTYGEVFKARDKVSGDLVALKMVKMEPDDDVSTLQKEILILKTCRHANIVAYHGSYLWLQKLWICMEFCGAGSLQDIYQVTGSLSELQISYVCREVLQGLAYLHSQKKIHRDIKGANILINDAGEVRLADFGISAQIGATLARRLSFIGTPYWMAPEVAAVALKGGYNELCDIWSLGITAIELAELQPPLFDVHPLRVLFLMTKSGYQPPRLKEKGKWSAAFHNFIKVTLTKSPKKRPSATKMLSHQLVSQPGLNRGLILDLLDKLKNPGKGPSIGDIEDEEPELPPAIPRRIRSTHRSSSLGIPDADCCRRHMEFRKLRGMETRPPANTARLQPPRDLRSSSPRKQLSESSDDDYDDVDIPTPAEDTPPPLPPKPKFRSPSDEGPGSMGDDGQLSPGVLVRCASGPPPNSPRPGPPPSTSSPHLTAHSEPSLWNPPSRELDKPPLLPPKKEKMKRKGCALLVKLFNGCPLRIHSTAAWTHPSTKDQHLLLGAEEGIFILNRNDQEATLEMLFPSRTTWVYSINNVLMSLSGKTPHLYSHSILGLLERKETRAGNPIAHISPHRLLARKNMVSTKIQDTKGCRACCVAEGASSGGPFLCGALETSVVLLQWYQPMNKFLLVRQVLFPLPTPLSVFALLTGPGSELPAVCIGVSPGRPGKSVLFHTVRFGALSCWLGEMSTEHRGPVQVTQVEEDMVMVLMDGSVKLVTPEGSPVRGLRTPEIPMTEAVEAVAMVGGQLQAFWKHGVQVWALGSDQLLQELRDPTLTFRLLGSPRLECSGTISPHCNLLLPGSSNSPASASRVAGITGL

Row | Compound | IC50 [1] | also measured
1 | O[C@H]1CCN(c2nc3cc(Nc4ccc(C5CCOCC5)c(CN5CCCC5)n4)ncc3s2)C1 [Example 233, (3S)-1-(6-{[5-(Oxan-4-yl)-6-[(pyrrolidin-1-yl)methyl]pyridin-2-yl]amino}-[1,3]thiazolo[5,4-c]pyridin-2-yl)pyrrolidin-3-ol] | 0.1 to 1 µM | 
2 | CN1C[C@@H]2C[C@H]1CN2c1nccc(Nc2cc3nc(N4CCc5ccncc5C4)sc3cn2)n1 [Example 427] |  | IC50 [2]: 0.1 to 1 µM
3 | Cc1cc(Nc2cc3nc(-c4cc(C#N)ccc4C)sc3cn2)nc(O[C@H]2CCNC2)c1 [Example 176, 4-Methyl-3-(6-{[4-methyl-6-((3S)-pyrrolidin-3-yloxy)pyridin-2-yl]amino}-[1,3]thiazolo[5,4-c]pyridin-2-yl)benzonitrile] | < 0.1 µM | 
4 | Cc1ccc(Nc2cc3nc(-n4nccc4C)sc3cn2)nc1N1C[C@@H](N)C[C@H]1CO [Example 201, [(2S,4S)-4-Amino-1-(3-methyl-6-{[2-(5-methyl-1H-pyrazol-1-yl)-[1,3]thiazolo[5,4-c]pyridin-6-yl]amino}pyridin-2-yl)pyrrolidin-2-yl]methanol] | < 0.1 µM | 
5 | CN1C[C@@H]2C[C@H]1CN2c1nc(Nc2cc3nc(-c4ccnc(C(C)(C)O)c4)sc3cn2)cc(C2CCOCC2)n1 [Example 439] |  | IC50 [2]: < 0.1 µM
6 | Cc1ccc(Nc2cc3nc(-c4cccc(F)c4)sc3cn2)nc1CN1CCCC1 [Example 34] | < 0.1 µM | 
7 | Cc1ccc(Nc2cc3nc(-c4cncnc4)sc3cn2)nc1CN1CCCC1 [Example 58, 5-Methyl-N-[2-(pyrimidin-5-yl)-[1,3]thiazolo[5,4-c]pyridin-6-yl]-6-[(pyrrolidin-1-yl)methyl]pyridin-2-amine] | 0.1 to 1 µM | 
8 | Cc1cccnc1-c1nc2cc(Nc3ccc(C)c(N4CC[C@H](N)C4)n3)ncc2s1 [Example 75, 6-[(3S)-3-Aminopyrrolidin-1-yl]-5-methyl-N-[2-(3-methylpyridin-2-yl)-[1,3]thiazolo[5,4-c]pyridin-6-yl]pyridin-2-amine] | < 0.1 µM | 
9 | c1cc(-c2nc3cc(Nc4nccc(N5C[C@@H]6C[C@H]5CN6)n4)ncc3s2)ccn1 [Example 241, 4-[(1S,4S)-2,5-Diazabicyclo[2.2.1]heptan-2-yl]-N-[2-(pyridin-4-yl)-[1,3]thiazolo[5,4-c]pyridin-6-yl]pyrimidin-2-amine] | < 0.1 µM | 
10 | Cc1ccc(N2C[C@@H]3C[C@H]2CN3C)nc1Nc1cc2nc(-c3ncccc3C)sc2cn1 [Example 284, 3-methyl-6-[(1S,4S)-5-methyl-2,5-diazabicyclo[2.2.1]heptan-2-yl]-N-[2-(3-methylpyridin-2-yl)-[1,3]thiazolo[5,4-c]pyridin-6-yl]pyridin-2-amine] | 0.1 to 1 µM | 
11 | Cc1ccc(Nc2cc3nc(-c4ncccc4C)sc3cn2)nc1CCN1CCCC1 [Example 62, 5-Methyl-N-[2-(3-methylpyridin-2-yl)-[1,3]thiazolo[5,4-c]pyridin-6-yl]-6-[2-(pyrrolidin-1-yl)ethyl]pyridin-2-amine] | 0.1 to 1 µM | 
12 | Cc1cccnc1-c1nc2cc(Nc3ccnc(N4C[C@@H]5C[C@H]4CN5)n3)ncc2s1 [Example 149, 2-[(1S,4S)-2,5-Diazabicyclo[2.2.1]heptan-2-yl]-N-[2-(3-methylpyridin-2-yl)-[1,3]thiazolo[5,4-c]pyridin-6-yl]pyrimidin-4-amine] | < 0.1 µM | 
13 | Cc1cccnc1-c1nc2cc(Nc3cccc(N4CC5CC(C4)N5C)n3)ncc2s1 [Example 98, 6-{6-Methyl-3,6-diazabicyclo[3.1.1]heptan-3-yl}-N-[2-(3-methylpyridin-2-yl)-[1,3]thiazolo[5,4-c]pyridin-6-yl]pyridin-2-amine] | < 0.1 µM | 
14 | Cc1cccnc1-c1nc2cc(Nc3cnc(C)c(N4C[C@@H]5C[C@H]4CN5C)n3)ncc2s1 [Example 154, 5-Methyl-6-[(1S,4S)-5-methyl-2,5-diazabicyclo[2.2.1]heptan-2-yl]-N-[2-(3-methylpyridin-2-yl)-[1,3]thiazolo[5,4-c]pyridin-6-yl]pyrazin-2-amine] | < 0.1 µM | 
15 | Cc1cc(Nc2cc3nc(-c4ccc(S(C)(=O)=O)cc4)sc3cn2)nc(O[C@H]2CCNC2)c1 [Example 186, N-[2-(4-Methanesulfonylphenyl)-[1,3]thiazolo[5,4-c]pyridin-6-yl]-4-methyl-6-[(3S)-pyrrolidin-3-yloxy]pyridin-2-amine] | < 0.1 µM | 
16 | CN(C)Cc1nc(Nc2cc3nc(NC(=O)c4c(F)cccc4F)sc3cn2)ccc1N1CCOCC1 [Example 282, N-[6-({6-[(Dimethylamino)methyl]-5-(morpholin-4-yl)pyridin-2-yl}amino)-[1,3]thiazolo[5,4-c]pyridin-2-yl]-2,6-difluorobenzamide] | < 0.1 µM | 

Row | Compound | IC50 [1] | also measured
17 | Cc1cc(-c2nc3cc(Nc4ccc(N5CCOCC5)c(CN5CCCC5)c4)ncc3s2)ccn1 [Example 2, 2-(2-Methylpyridin-4-yl)-N-[4-(morpholin-4-yl)-3-[(pyrrolidin-1-yl)methyl]phenyl]-[1,3]thiazolo[5,4-c]pyridin-6-amine] | 0.1 to 1 µM | 
18 | Cc1cc(Nc2cc3nc(N4CCC[C@@H](O)C4)sc3cn2)nc(O[C@H]2CCNC2)c1 [Example 193, (3R)-1-(6-{[4-Methyl-6-((3S)-pyrrolidin-3-yloxy)pyridin-2-yl]amino}-[1,3]thiazolo[5,4-c]pyridin-2-yl)piperidin-3-ol] | < 0.1 µM | 
19 | c1cc(C2CCOCC2)c(CN2CCCC2)nc1Nc1cc2nc(N3C[C@@H]4C[C@H]3CO4)sc2cn1 [Example 211] | 0.1 to 1 µM | 
20 | Cc1cccnc1-c1nc2cc(Nc3ccc(C4CCOCC4)c(CN4CC[C@@H](F)C4)n3)ncc2s1 [Example 213, 6-{[(3R)-3-Fluoropyrrolidin-1-yl]methyl}-N-[2-(3-methylpyridin-2-yl)-[1,3]thiazolo[5,4-c]pyridin-6-yl]-5-(oxan-4-yl)pyridin-2-amine] | < 0.1 µM | 
21 | Cc1cccnc1-c1nc2cc(Nc3ccc4cccc(C(C)(C)N)c4n3)ncc2s1 [Example 306, 6-[8-(1-amino-1-methylethyl)-2-quinolylamino]-2-(3-methyl-2-pyridyl)-3-thia-1,5-diazaindene] |  | IC50 [2]: < 0.1 µM
22 | Cc1cccnc1-c1nc2cc(Nc3cccc(N4CC5CCC(C4)N5C)n3)ncc2s1 [Example 107, 6-{8-Methyl-3,8-diazabicyclo[3.2.1]octan-3-yl}-N-[2-(3-methylpyridin-2-yl)-[1,3]thiazolo[5,4-c]pyridin-6-yl]pyridin-2-amine] | < 0.1 µM | 
23 | C[C@H]1CCCCN1c1nc2cc(Nc3ccc(C4CCOCC4)c(CN4CCCC4)n3)ncc2s1 [Example 236, N-{2-[(2S)-2-Methylpiperidin-1-yl]-[1,3]thiazolo[5,4-c]pyridin-6-yl}-5-(oxan-4-yl)-6-[(pyrrolidin-1-yl)methyl]pyridin-2-amine] | < 0.1 µM | 
24 | c1n[nH]cc1-c1nc2cc(Nc3ccc(N4CCOCC4)c(CN4CCCC4)n3)ncc2s1 [Example 25, 5-(Morpholin-4-yl)-N-[2-(1H-pyrazol-4-yl)-[1,3]thiazolo[5,4-c]pyridin-6-yl]-6-[(pyrrolidin-1-yl)methyl]pyridin-2-amine] | < 0.1 µM | 
25 | Fc1cccnc1-c1nc2cc(Nc3ccc(N4CCOCC4)c(CN4CCCC4)n3)ncc2s1 [Example 8, N-[2-(3-Fluoropyridin-2-yl)-[1,3]thiazolo[5,4-c]pyridin-6-yl]-5-(morpholin-4-yl)-6-[(pyrrolidin-1-yl)methyl]pyridin-2-amine] | < 0.1 µM | 
26 | Cc1cccnc1-c1nc2cc(Nc3ccc(C4CCOCC4)c(N4C[C@@H]5C[C@H]4CN5)n3)ncc2s1 [Example 246, 6-[(1S,4S)-2,5-Diazabicyclo[2.2.1]heptan-2-yl]-N-[2-(3-methylpyridin-2-yl)-[1,3]thiazolo[5,4-c]pyridin-6-yl]-5-(oxan-4-yl)pyridin-2-amine] | < 0.1 µM | 
27 | Cc1cccnc1-c1nc2cc(Nc3ccc(N4CCC(F)(F)C4)c(N4C[C@@H]5C[C@H]4CN5C)n3)ncc2s1 [Example 281, 5-(3,3-Difluoropyrrolidin-1-yl)-6-[(1S,4S)-5-methyl-2,5-diazabicyclo[2.2.1]heptan-2-yl]-N-[2-(3-methylpyridin-2-yl)-[1,3]thiazolo[5,4-c]pyridin-6-yl]pyridin-2-amine] | < 0.1 µM | 
28 | CN1C[C@@H]2C[C@H]1CN2c1nccc(Nc2cc3nc(-c4ccnc(N5CC[C@@H](F)C5)c4)sc3cn2)n1 [Example 461] |  | IC50 [2]: < 0.1 µM
29 | Cc1ccc(Nc2cc3nc(-c4ccncc4)sc3cn2)nc1CN1CCCC1 [Example 35, 5-Methyl-N-[2-(pyridin-4-yl)-[1,3]thiazolo[5,4-c]pyridin-6-yl]-6-[(pyrrolidin-1-yl)methyl]pyridin-2-amine] |  | IC50 (Biochemical Potency (low ATP), 2 nM HPK1, 10 μM ATP): < 0.1 µM
30 | Cc1ccc(Nc2cc3nc(-c4ncccn4)sc3cn2)nc1CN1CCCC1 [Example 55, 5-Methyl-N-[2-(pyrimidin-2-yl)-[1,3]thiazolo[5,4-c]pyridin-6-yl]-6-[(pyrrolidin-1-yl)methyl]pyridin-2-amine] | 0.1 to 1 µM | 
31 | Cc1ccc(Nc2cc3nc(-c4ncccc4C)sc3cn2)nc1CN1CCC[C@H]1CO [Example 48, [(2S)-1-[(3-Methyl-6-{[2-(3-methylpyridin-2-yl)-[1,3]thiazolo[5,4-c]pyridin-6-yl]amino}pyridin-2-yl)methyl]pyrrolidin-2-yl]methanol] | < 0.1 µM | 
